This experiment deals with nasal polyps. Kind of experiment: Two week treatment of nine patients with omeprazole, intranasal budesonide and oral deflazacort (Examples 2 to 10). The class given is in vivo, human. Particulars: two weeks, 20 mg omeprazole, 100 μg intranasal budesonide, 3 to 15 mg oral deflazacort. Here is the method: Nine patients, each with the conditions shown in the following Table 1, were treated during a two week period. The treatment consisted of 20 mg of omeprazole, 100 μg of intranasal budesonide and 3 to 15 mg of oral deflazacort (deflazacort was used in such a small quantity to ensure the patients' compliance).

“Also recorded” adds a separate entry of the source.

Regarding `COc1ccc2[nH]c([S+]([O-])Cc3ncc(C)c(OC)c3C)nc2c1` (stereo not drawn) [omeprazole], the Result result is recorded as “Positive effect” (patient with Nasal Polyposis and aspirin intolerance (Example 9)); “Positive effect; also recorded: Long term benefit” (patients with Nasal Polyposis (Examples 5-8)); “Temporary benefit; also recorded: Positive effect” (patients with Widal's Syndrome (Examples 2-4)).

Source of the values: US6599927B2, “Use of an H+, K+-ATPase inhibitor in the treatment of Widal's Syndrome” (AstraZeneca AB, priority 1996, dated 2003).
